Measurements as given in ChEMBL document CHEMBL6083208, “Integrating amino acids into Bcr-Abl inhibitors: design, synthesis, biological evaluation, and in silico studies” (RSC Med Chem, 2024).

What was measured:
[1] = Inhibition of Bcr-Abl T315Ialpha mutant (unknown origin) using Abltide as substrate incubated for 1 hr by luminescence based ADP-glo assay; parameters: species or system Homo sapiens
HEK293 = experiment: Antiproliferative activity against HEK293 cells after 48 hrs by MTT assay; format: toxicity, cell-based; parameters: concentration or dose not given beside the values; settings: human, hek293, 48 h
K562 = experiment: cells; settings: Homo sapiens, K562, 48 h
Bcr/Abl fusion protein = Bcr/Abl fusion protein (Homo sapiens, UniProt P00519); experiment: Inhibition of wild type Bcr-Abl (unknown origin) using Abltide as substrate incubated for 1 hr by luminescence based ADP-glo assay; format: protein assay
THP-1 = experiment: Antiproliferative activity against human THP-1 cells after 48 hrs by MTT assay; format: functional; parameters: concentration or dose not given beside the values
BaF3 [2] = experiment: Antiproliferative activity against mouse BaF3 cells harbouring Bcr-Abl T315I assessed of cell viability at 30 uM incubated for 72 hrs by Celltiter-glo luminescent cell viability assay relative to control; format: functional
BaF3 [3] = experiment: Antiproliferative activity against mouse BaF3 cells harbouring Bcr-Abl T315I assessed of cell viability at 2 uM incubated for 72 hrs by Celltiter-glo luminescent cell viability assay relative to control; format: functional
BaF3 [4] = experiment: Antiproliferative activity against mouse BaF3 cells harbouring Bcr-Abl T315I assessed of cell viability at 10 uM incubated for 72 hrs by Celltiter-glo luminescent cell viability assay relative to control; format: functional

Bcr/Abl fusion protein, sequence (P00519 whole entry, the tested form may be a part): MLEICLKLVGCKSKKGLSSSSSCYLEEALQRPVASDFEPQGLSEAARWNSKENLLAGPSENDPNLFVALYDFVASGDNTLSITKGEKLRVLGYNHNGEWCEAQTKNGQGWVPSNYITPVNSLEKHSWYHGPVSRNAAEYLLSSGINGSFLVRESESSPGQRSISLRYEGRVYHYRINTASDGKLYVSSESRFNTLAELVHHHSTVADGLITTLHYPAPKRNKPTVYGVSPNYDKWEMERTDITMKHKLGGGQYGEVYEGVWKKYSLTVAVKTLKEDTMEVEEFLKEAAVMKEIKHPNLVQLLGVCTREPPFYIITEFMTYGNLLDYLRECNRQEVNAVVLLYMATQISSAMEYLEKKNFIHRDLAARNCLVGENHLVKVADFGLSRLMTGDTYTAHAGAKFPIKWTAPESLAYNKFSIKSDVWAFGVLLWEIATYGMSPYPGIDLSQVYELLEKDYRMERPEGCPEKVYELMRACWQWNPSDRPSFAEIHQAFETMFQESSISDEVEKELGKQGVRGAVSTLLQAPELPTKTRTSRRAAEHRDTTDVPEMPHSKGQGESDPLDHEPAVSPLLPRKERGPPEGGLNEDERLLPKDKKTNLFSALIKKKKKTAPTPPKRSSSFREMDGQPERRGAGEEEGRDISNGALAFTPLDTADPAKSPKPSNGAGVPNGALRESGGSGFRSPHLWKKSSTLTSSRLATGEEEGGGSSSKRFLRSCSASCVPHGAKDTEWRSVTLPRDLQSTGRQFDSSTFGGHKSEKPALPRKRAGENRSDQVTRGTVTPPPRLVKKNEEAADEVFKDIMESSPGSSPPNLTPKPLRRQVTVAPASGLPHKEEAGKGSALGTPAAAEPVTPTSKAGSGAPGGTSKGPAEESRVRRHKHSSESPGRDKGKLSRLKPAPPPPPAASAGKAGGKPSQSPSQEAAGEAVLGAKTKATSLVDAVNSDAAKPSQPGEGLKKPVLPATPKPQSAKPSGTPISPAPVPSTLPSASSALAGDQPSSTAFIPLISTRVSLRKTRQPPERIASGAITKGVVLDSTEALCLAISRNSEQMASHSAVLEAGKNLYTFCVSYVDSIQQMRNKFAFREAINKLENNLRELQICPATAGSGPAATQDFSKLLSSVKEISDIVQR
Bcr/Abl fusion protein, sequence (P11274 whole entry, further chain, the tested form may be a part): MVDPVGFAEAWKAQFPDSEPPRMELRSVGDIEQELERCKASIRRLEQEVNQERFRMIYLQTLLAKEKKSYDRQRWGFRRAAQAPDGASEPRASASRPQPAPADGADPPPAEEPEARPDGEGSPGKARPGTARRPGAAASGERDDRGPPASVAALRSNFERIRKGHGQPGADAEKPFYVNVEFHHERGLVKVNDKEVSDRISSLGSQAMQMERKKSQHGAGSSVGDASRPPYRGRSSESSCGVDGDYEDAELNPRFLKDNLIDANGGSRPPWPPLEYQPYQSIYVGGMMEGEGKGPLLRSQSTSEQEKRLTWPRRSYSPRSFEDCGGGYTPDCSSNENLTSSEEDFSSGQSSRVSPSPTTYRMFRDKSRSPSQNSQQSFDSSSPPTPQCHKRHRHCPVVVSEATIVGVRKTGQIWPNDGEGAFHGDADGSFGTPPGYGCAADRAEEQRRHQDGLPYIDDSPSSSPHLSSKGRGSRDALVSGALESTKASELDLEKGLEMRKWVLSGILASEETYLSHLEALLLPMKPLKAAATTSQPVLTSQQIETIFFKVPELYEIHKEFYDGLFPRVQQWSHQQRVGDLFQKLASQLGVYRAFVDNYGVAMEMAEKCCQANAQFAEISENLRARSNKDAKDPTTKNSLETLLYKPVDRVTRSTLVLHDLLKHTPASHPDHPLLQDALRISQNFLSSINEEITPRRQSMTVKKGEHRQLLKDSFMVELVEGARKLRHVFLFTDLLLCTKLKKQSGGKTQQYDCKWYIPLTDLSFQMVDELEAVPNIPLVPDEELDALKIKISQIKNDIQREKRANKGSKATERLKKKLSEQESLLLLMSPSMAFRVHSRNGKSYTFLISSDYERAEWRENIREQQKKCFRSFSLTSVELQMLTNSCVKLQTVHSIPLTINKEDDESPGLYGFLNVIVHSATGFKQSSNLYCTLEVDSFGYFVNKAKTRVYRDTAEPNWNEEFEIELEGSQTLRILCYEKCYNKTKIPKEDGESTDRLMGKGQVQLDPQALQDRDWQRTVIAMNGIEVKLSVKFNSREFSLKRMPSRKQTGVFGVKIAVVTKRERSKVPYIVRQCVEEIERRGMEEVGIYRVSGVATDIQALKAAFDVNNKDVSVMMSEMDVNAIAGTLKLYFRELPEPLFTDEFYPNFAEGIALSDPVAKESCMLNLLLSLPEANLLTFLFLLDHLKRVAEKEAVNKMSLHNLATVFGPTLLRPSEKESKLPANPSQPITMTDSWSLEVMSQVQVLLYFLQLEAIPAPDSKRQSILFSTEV

Compound | IC50 [1] [nM] | Activity (HEK293) [%] | IC50 (K562) [nM] | IC50 (Bcr/Abl fusion protein) [nM] | Activity (THP-1) [%] | inhibition at 30 µM (BaF3 [2]) [%] | inhibition at 2 µM (BaF3 [3]) [%] | inhibition at 10 µM (BaF3 [4]) [%]
CC(C)(C)OC[C@H](NC(=O)c1cccc(-c2ccc(N)nc2)c1)C(=O)Nc1ccc(Cl)c(C(F)(F)F)c1 | 105 | 96 | 1.27 | 0.27 | 100 | -5 | – | –
CC(C)(C)C(=O)Nc1ccc(-c2cccc(C(=O)N[C@H](C(=O)Nc3ccc(Cl)c(C(F)(F)F)c3)C(C)(C)C)c2)cn1 | 351 | 81 | 0.97 | 26.5 | 73 | 98.1 | 99.9 | 100
CC(=O)Nc1cc(-c2ccc(C(=O)N[C@@H](CO)C(=O)Nc3ccc(Cl)c(C(F)(F)F)c3)cc2)ccn1 | 136 | 91 | 2.64 | 0.8 | 72 | 58.8 | – | –
Nc1cc(-c2ccc(C(=O)N[C@@H](CO)C(=O)Nc3ccc(Cl)c(C(F)(F)F)c3)cc2)ccn1 | 99 | 83 | 0.36 | 0.24 | 100 | -3.39 | – | –
CCN(CC)C(=O)c1cncc(-c2cccc(C(=O)N[C@@H](COC(C)(C)C)C(=O)Nc3ccc(Cl)c(C(F)(F)F)c3)c2)c1 | 132 | 100 | 8.11 | 33 | 84 | 58.4 | – | –
CC(C)(C)[C@H](NC(=O)c1cccc(-c2cncc(C(=O)NC3CC3)c2)c1)C(=O)Nc1ccc(Cl)c(C(F)(F)F)c1 | 207 | 90 | 8.47 | 34 | 100 | – | 7.2 | 65.6
CCN(CC)C(=O)c1cncc(-c2ccc(C(=O)N[C@H](C(=O)Nc3ccc(Cl)c(C(F)(F)F)c3)C(C)(C)C)cc2)c1 | 185 | 97 | 10.2 | 4.5 | 56 | 42.8 | – | –
CC(=O)Nc1ccc(-c2cccc(C(=O)N[C@H](C(=O)Nc3ccc(Cl)c(C(F)(F)F)c3)C(C)(C)C)c2)cn1 | 165 | 86 | 10.1 | 7.26 | 100 | – | 7.81 | 100
CC(C)(C)OC[C@H](NC(=O)c1ccc(-c2ccnc(NC(=O)C(C)(C)C)c2)cc1)C(=O)Nc1ccc(Cl)c(C(F)(F)F)c1 | 303 | 90 | 3.12 | 4.44 | 63 | -3.86 | – | –
CCN(CC)C(=O)c1cncc(-c2cccc(C(=O)N[C@H](C(=O)Nc3ccc(Cl)c(C(F)(F)F)c3)C(C)(C)C)c2)c1 | 148 | 100 | 2.66 | 6.69 | 55 | 50.8 | – | –
CS(=O)(=O)Nc1cc(-c2ccc(C(=O)N[C@@H](CO)C(=O)Nc3ccc(Cl)c(C(F)(F)F)c3)cc2)ccn1 | 87 | 78 | 0.13 | 0.33 | 87 | 5.71 | – | –
CCN(CC)C(=O)c1cncc(-c2cccc(C(=O)N[C@@H](CO)C(=O)Nc3ccc(Cl)c(C(F)(F)F)c3)c2)c1 | 295 | 84 | 4.92 | 3.57 | 75 | 53.2 | – | –
O=C(NC1CC1)c1cncc(-c2ccc(C(=O)N[C@@H](CO)C(=O)Nc3ccc(Cl)c(C(F)(F)F)c3)cc2)c1 | 60 | 89 | 1.68 | 1.11 | 58 | 82.5 | – | –
CC(C)(C)OC[C@H](NC(=O)c1cccc(-c2ccc(NC(=O)C3CC3)nc2)c1)C(=O)Nc1ccc(Cl)c(C(F)(F)F)c1 | 204 | 92 | – | 3.75 | 74 | -4.27 | – | –
CC(C)(C)OC[C@H](NC(=O)c1cccc(-c2ccc(NC(=O)C(C)(C)C)nc2)c1)C(=O)Nc1ccc(Cl)c(C(F)(F)F)c1 | 436 | 72 | 1.26 | 8.61 | 73 | -5.67 | – | –
CCN(CC)C(=O)c1cncc(-c2ccc(C(=O)N[C@@H](CO)C(=O)Nc3ccc(Cl)c(C(F)(F)F)c3)cc2)c1 | 261 | 74 | 12.2 | 0.27 | 100 | -1.59 | – | –
CC(=O)Nc1ccc(-c2cccc(C(=O)N[C@@H](COC(C)(C)C)C(=O)Nc3ccc(Cl)c(C(F)(F)F)c3)c2)cn1 | 723 | 98 | 19.4 | 56 | 64 | 77.1 | – | –
CC(C)(C)C(=O)Nc1ccc(-c2cccc(C(=O)N[C@@H](CO)C(=O)Nc3ccc(Cl)c(C(F)(F)F)c3)c2)cn1 | 504 | 100 | 4.86 | 7.29 | 77 | – | 0.99 | 96.8
O=C(NC1CC1)c1cncc(-c2cccc(C(=O)N[C@@H](CO)C(=O)Nc3ccc(Cl)c(C(F)(F)F)c3)c2)c1 | 348 | 99 | 2.79 | 1.35 | 72 | 66.1 | – | –
CCN(CC)C(=O)c1cncc(-c2ccc(C(=O)N[C@@H](COC(C)(C)C)C(=O)Nc3ccc(Cl)c(C(F)(F)F)c3)cc2)c1 | 144 | 73 | 6.26 | 5.46 | 100 | 35 | – | –
CC(C)(C)OC[C@H](NC(=O)c1cccc(-c2cncc(C(=O)NC3CC3)c2)c1)C(=O)Nc1ccc(Cl)c(C(F)(F)F)c1 | 608 | 95 | 8.86 | 9.3 | 69 | – | 1.93 | 94.1
CC(C)(C)OC[C@H](NC(=O)c1ccc(-c2ccnc(C(=O)NC3CC3)c2)cc1)C(=O)Nc1ccc(Cl)c(C(F)(F)F)c1 | 183 | 84 | 10.7 | 11.4 | 62 | – | 0 | 22.5
CC(C)(C)OC[C@H](NC(=O)c1ccc(-c2cncc(C(=O)NC3CC3)c2)cc1)C(=O)Nc1ccc(Cl)c(C(F)(F)F)c1 | 128 | 84 | 2.5 | 15.5 | 79 | 69.7 | – | –
CS(=O)(=O)Nc1ccc(-c2cccc(C(=O)N[C@@H](CO)C(=O)Nc3ccc(Cl)c(C(F)(F)F)c3)c2)cn1 | 217 | 94 | 1.33 | 0.93 | 83 | 62.8 | – | –
Cc1ccc(C(=O)Nc2ccc(CN3CCN(C)CC3)c(C(F)(F)F)c2)cc1C#Cc1cnc2cccnn12 [PONATINIB] | – | 55 | 0.049 | – | 3 | – | – | –
CC(C)(C)C(=O)Nc1cc(-c2ccc(C(=O)N[C@H](C(=O)Nc3ccc(Cl)c(C(F)(F)F)c3)C(C)(C)C)cc2)ccn1 | 481 | 87 | 5.36 | 16.8 | 94 | 8.24 | – | –
